The target in this assay is Human factor D (Homo sapiens (Human), UniProt P00746). Description: Human Factor D Assay. It is filed as biochemical. The note with it: Human factor D 80 nM, substrate Z-L-Lys-SBzl, assay of Example 12. The protocol:
Example 12. Human Factor D Assay
Human factor D (purified from human serum, Complement Technology, Inc.) at 80 nM final concentration is incubated with test compound at various concentrations for 5 minutes at room temperature in 50 mM Tris, 1M NaCl, pH 7.5. A synthetic substrate Z-L-Lys-SBzl and DTNB (Ellman's reagent) are added to final concentrations of 100 μM each. The increase in color is recorded at OD405 nm in a microplate in kinetic mode over 30 minutes with 30 second time points in a spectrofluorimeter. IC50 values are calculated by non-linear regression from the percentage of inhibition of complement factor D activity as a function of test compound concentration.

Structures are written as SMILES.

Human factor D, sequence (P00746 26-253): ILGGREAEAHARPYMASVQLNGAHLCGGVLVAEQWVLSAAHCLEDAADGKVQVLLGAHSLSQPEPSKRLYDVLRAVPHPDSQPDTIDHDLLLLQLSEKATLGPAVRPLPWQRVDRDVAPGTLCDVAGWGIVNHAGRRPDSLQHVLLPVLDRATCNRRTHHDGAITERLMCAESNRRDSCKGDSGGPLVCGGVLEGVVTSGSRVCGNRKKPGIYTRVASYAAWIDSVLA

In turn, `NC(=O)c1nn(CC(=O)N2C[C@H](F)C[C@H]2C(=O)Nc2cccc(Br)n2)c2ccc(C#Cc3ncccn3)cc12` [Compound 39, 1-(2-((2S,4R)-2-(6-bromopyridin-2-ylcarbamoyl)-4-fluoropyrrolidin-1-yl)-2-oxoethyl)-5-(pyrimidin-2-ylethynyl)-1H-indazole-3-carboxamide] registered an IC50 below 1 µM.

On to `NC(=O)c1nn(CC(=O)N2C[C@H](F)C[C@H]2C(=O)Nc2cccc(Br)n2)c2ccc(C#Cc3ccccn3)cc12` [Compound 48, 1-(2-((2S,4R)-2-(6-bromopyridin-2-ylcarbamoyl)-4-fluoropyrrolidin-1-yl)-2-oxoethyl)-5-(pyridin-2-ylethynyl)-1H-indazole-3-carboxamide], for which the IC50 was below 1 µM.

Take `NC(=O)c1nn(CC(=O)N2C[C@H](F)C[C@H]2C(=O)NCc2cccc(Cl)c2F)c2ccc(C#Cc3ncc(F)cn3)cc12` [Compound 40, 1-(2-((2S,4R)-2-(3-chloro-2-fluorobenzylcarbamoyl)-4-fluoropyrrolidin-1-yl)-2-oxoethyl)-5-((5-fluoropyrimidin-2-yl)ethynyl)-1H-indazole-3-carboxamide]: the IC50 was below 1 µM.

Take `C#Cc1ccc2c(C(C)=O)cn(CC(=O)N3C[C@H](F)C[C@H]3C(=O)NCc3cccc(Cl)c3F)c2c1` [Compound 1, (2S,4R)-1-(2-(3-acetyl-6-ethynyl-1H-indol-1-yl)acetyl)-N-(3-chloro-2-fluorobenzyl)-4-fluoropyrrolidine-2-carboxamide]: the IC50 was below 1 µM.

`NC(=O)c1nn(CC(=O)N2C[C@H](F)C[C@H]2C(=O)NCc2cccc(Cl)c2F)c2ccc(C#Cc3ccccn3)cc12` [Compound 23, 1-(2-((2S,4R)-2-(3-chloro-2-fluorobenzylcarbamoyl)-4-fluoropyrrolidin-1-yl)-2-oxoethyl)-5-(pyridin-2-ylethynyl)-1H-indazole-3-carboxamide] returned an IC50 below 1 µM.

With `NC(=O)c1nn(CC(=O)N2[C@@H]3C[C@@H]3C[C@H]2C(=O)Nc2cccc(Br)n2)c2ccc(C#Cc3ccc(C(F)(F)F)cn3)cc12` [Compound 59, 1-(2-((1R,3S,5R)-3-(6-bromopyridin-2-ylcarbamoyl)-2-azabicyclo[3.1.0]hexan-2-yl)-2-oxoethyl)-5-((5-(trifluoromethyl)pyridin-2-yl)ethynyl)-1H-indazole-3-], the IC50 was below 1 µM.

The molecule `CC(=O)c1cn(CC(=O)N2C[C@H](F)C[C@H]2C(=O)NCc2cccc(Cl)c2F)c2cc(C#C[Si](C)(C)C)ccc12` [Compound 3, (2S,4R)-1-(2-(3-acetyl-6-((trimethylsilyl)ethynyl)-1H-indol-1-yl)acetyl)-N-(3-chloro-2-fluorobenzyl)-4-fluoropyrrolidine-2-carboxamide] yielded an IC50 below 1 µM.

Molecule `NC(=O)c1nn(CC(=O)N2C[C@H](F)C[C@H]2C(=O)Nc2ccc3cccc(Cl)c3n2)c2ccc(C#Cc3ncc(F)cn3)cc12` [Compound 71, 1-(2-((2S,4R)-2-(8-chloroquinolin-2-ylcarbamoyl)-4-fluoropyrrolidin-1-yl)-2-oxoethyl)-5-((5-fluoropyrimidin-2-yl)ethynyl)-1H-indazole-3-carboxamide] came in with an IC50 below 1 µM.

`NC(=O)c1nn(CC(=O)N2CC[C@@H](O)[C@H]2C(=O)NCc2cccc(Cl)c2F)c2ccc(C#Cc3ncccn3)cc12` [Compound 52, 1-(2-((2S,3R)-2-(3-chloro-2-fluorobenzylcarbamoyl)-3-hydroxypyrrolidin-1-yl)-2-oxoethyl)-5-(pyrimidin-2-ylethynyl)-1H-indazole-3-carboxamide] registered an IC50 below 1 µM.

Take `NC(=O)c1nn(CC(=O)N2C[C@H](F)C[C@H]2C(=O)Nc2cccc(-c3ccccc3Cl)c2F)c2ccc(C#Cc3ncccn3)cc12` [Compound 22, 1-(2-((2S,4R)-2-(2′-chloro-2-fluorobiphenyl-3-ylcarbamoyl)-4-fluoropyrrolidin-1-yl)-2-oxoethyl)-5-(pyrimidin-2-ylethynyl)-1H-indazole-3-carboxamide]: the IC50 was below 1 µM.

Turning to `NC(=O)c1nn(CC(=O)N2C[C@H](F)C[C@H]2C(=O)N2CCc3c([nH]c4ccccc34)C2)c2ccc(C#Cc3ncccn3)cc12` [Compound 31, 1-(2-((2S,4R)-4-fluoro-2-(2,3,4,9-tetrahydro-1H-pyrido[3,4-b]indole-2-carbonyl)pyrrolidin-1-yl)-2-oxoethyl)-5-(pyrimidin-2-ylethynyl)-1H-indazole-3-carboxamide], the IC50 is above 10 µM.

As for `NC(=O)c1nn(CC(=O)N2[C@@H]3C[C@@H]3C[C@H]2C(=O)Nc2ccn(CC(F)(F)F)n2)c2ccc(C#Cc3ncc(F)cn3)cc12` [Compound 72, 5-((5-fluoropyrimidin-2-yl)ethynyl)-1-(2-oxo-2-((1R,3S,5R)-3-(1-(2,2,2-trifluoroethyl)-1H-pyrazol-3-ylcarbamoyl)-2-azabicyclo[3.1.0]hexan-2-yl)ethyl)-1H-indazole-3-carboxamide], the IC50 was below 1 µM.

On to `NC(=O)c1nn(CC(=O)N2C[C@H](F)C[C@H]2C(=O)Nc2cccc(-c3ccccc3Cl)c2F)c2ccc(C#Cc3cccnn3)cc12` [Compound 73, 1-(2-((2S,4R)-2-(2′-chloro-2-fluorobiphenyl-3-ylcarbamoyl)-4-fluoropyrrolidin-1-yl)-2-oxoethyl)-5-(pyridazin-3-ylethynyl)-1H-indazole-3-carboxamide], for which the IC50 was below 1 µM.

`C#Cc1cccc(NC(=O)[C@@H]2C[C@@H](F)CN2C(=O)Cn2nc(C(N)=O)c3ccncc32)c1F` [Compound 15, 1-(2-((2S,4R)-2-(3-ethynyl-2-fluorophenylcarbamoyl)-4-fluoropyrrolidin-1-yl)-2-oxoethyl)-1H-pyrazolo[3,4-c]pyridine-3-carboxamide]: the IC50 was below 1 µM.

`NC(=O)c1nn(CC(=O)N2C[C@H](F)C[C@H]2C(=O)Nc2cccc(-c3ccccc3Cl)c2F)c2ccc(C#Cc3ccnnc3)cc12` [Compound 79, 1-(2-((2S,4R)-2-(2′-chloro-2-fluorobiphenyl-3-ylcarbamoyl)-4-fluoropyrrolidin-1-yl)-2-oxoethyl)-5-(pyridazin-4-ylethynyl)-1H-indazole-3-carboxamide]: the IC50 was below 1 µM.

Regarding `NC(=O)c1nn(CC(=O)N2[C@@H]3C[C@@H]3C[C@H]2C(=O)Nc2cccc(Br)n2)c2ccc(C#Cc3ncc(F)cn3)cc12` [Compound 43, 1-(2-((1R,3S,5R)-3-(6-bromopyridin-2-ylcarbamoyl)-2-azabicyclo[3.1.0]hexan-2-yl)-2-oxoethyl)-5-((5-fluoropyrimidin-2-yl)ethynyl)-1H-indazole-3-carboxamide], the IC50 is below 1 µM.

As for `NC(=O)c1nn(CC(=O)N2C[C@H](F)C[C@H]2C(=O)Nc2cccc(-c3cccc(Cl)c3)c2F)c2ccc(C#Cc3ncccn3)cc12` [Compound 30, 1-(2-((2S,4R)-2-(3′-chloro-2-fluorobiphenyl-3-ylcarbamoyl)-4-fluoropyrrolidin-1-yl)-2-oxoethyl)-5-(pyrimidin-2-ylethynyl)-1H-indazole-3-carboxamide], the IC50 was below 1 µM.

For `CC(=O)c1cn(CC(=O)N2C[C@H](F)C[C@H]2C(=O)NCc2cccc(Cl)c2F)c2cc(C#CC(=O)O)ccc12` [Compound 2, 3-(3-acetyl-1-(2-((2S,4R)-2-(3-chloro-2-fluorobenzylcarbamoyl)-4-fluoropyrrolidin-1-yl)-2-oxoethyl)-1H-indol-6-yl)propiolic acid], the IC50 is below 1 µM.

Source of the values: US9828396B2, “Alkyne compounds for treatment of complement mediated disorders” (Achillion Pharmaceuticals, Inc., priority 2014, dated 2017).
